What was measured:
[1] = system: IL-1β; test: PBMC assay, IL-1β release after LPS stimulation; type: cell-based; conditions: human PBMCs, 30 min preincubation, 100 ng/ml LPS for 6 hrs, supernatant, MSD technology, read-out: IL1β AC50
Experimental: The activity of a compound according to the present invention can be assessed by in vitro methods.
(§1) Peripheral venous blood was collected from healthy individuals and human peripheral blood mononuclear cells (PBMCs) were isolated from blood by Ficoll-Histopaque (Sigma-Aldrich, A0561) density gradient centrifugation. After isolation, PBMCs were stored in liquid nitrogen for later use. Upon thawing, PBMC cell viability was determined in growth medium (RPMI media supplemented with 10% fetal bovine serum, 1% Pen-Strep and 1% L-glutamine). Compounds were spotted in a 1:3 serial dilution in DMSO and diluted to the final concentration in 30 μl medium in 96 well plates (Falcon, 353072). PBMCs were added at a density of 7.5×10^4 cells per well and incubated for 30 min in a 5% CO2 incubator at 37 ° C. LPS stimulation was performed by addition of 100 ng/ml LPS (final concentration, Invivogen, tlrl-smlps) for 6 hrs followed by collection of cellular supernatant and the analysis of IL-1β[…] and TNF cytokines levels (uμ) via MSD technology according to manufacturers' guidelines (MSD, K151A0H).
(§2) IC50 and AC50 values (for IL-1β) and EC50 and AC50 values (TNF) were obtained on compounds of the invention/examples, and the AC50 values are depicted in the following table: […]

[2] = system: TNF; test: PBMC assay, TNF release after LPS stimulation; type: cell-based; conditions: human PBMCs, 30 min preincubation, 100 ng/ml LPS for 6 hrs, supernatant, MSD technology
Experimental: as §1, §2

SMILES | AC50 [1] [µM] | AC50 [2] [µM]
CC(C)c1nn(CC(=O)Nc2ccc3nncn3c2)c(=O)cc1Nc1cccc2ocnc12 [Compound 42] | > 20 | > 20
CC(C)c1nn(CC(=O)Nc2ccc3nncn3c2)c(=O)cc1Nc1cc([C@H]2C[C@H]2C)on1 [Compound 43] | > 20 | > 20
CC(C)c1nn(CC(=O)Nc2ccc3nncn3c2)c(=O)cc1Nc1cc(CC2CC2)on1 [Compound 44] | > 20 | > 20
CC(C)c1nn(CC(=O)Nc2ccc3nncn3c2)c(=O)cc1N1CCCCC1 [Compound 45, N-([1,2,4]triazolo[4,3-a]pyridin-6-yl)-2-(3-isopropyl-6-oxo-4-(piperidin-1-yl)pyridazin-1(6H)-yl)acetamide] | 1.23 | > 20
CC(C)CNc1cc(=O)n(CC(=O)Nc2ccc3nncn3c2)nc1C(C)C [Compound 46] | 1.36 | > 20
CC(C)CN(C)c1cc(=O)n(CC(=O)Nc2ccc3nncn3c2)nc1C(C)C [Compound 47] | 13.8 | > 20
CC(C)c1nn(CC(=O)Nc2ccc3nncn3c2)c(=O)cc1N1CCN(C)CC1 [Compound 48] | > 20 | > 20
CC(C)c1nn(CC(=O)Nc2ccc3nncn3c2)c(=O)cc1N1CC2(CCC2)C1 [Compound 49] | 0.76 | 8.29
CC(C)c1nn(CC(=O)Nc2ccc3nncn3c2)c(=O)cc1N1CC2(COC2)C1 [Compound 50] | > 20 | > 20
CC(C)c1nn(CC(=O)Nc2ccc3nncn3c2)c(=O)cc1N1CC[C@H](C)C1 [Compound 51] | 0.42 | > 20
CC(C)c1nn(CC(=O)Nc2ccc3nncn3c2)c(=O)cc1N1CCC2(CCCO2)C1 (stereo not shown) [Compound 52] | > 20 | > 20
CC(C)c1nn(CC(=O)Nc2ccc3nncn3c2)c(=O)cc1N1CC2(C1)CC(F)(F)C2 [Compound 53] | > 20 | > 20
CC(C)c1nn(CC(=O)Nc2ccc3nncn3c2)c(=O)cc1N1CCCCC1C (stereo not shown) [Compound 54] | 3.62 | > 20
CC(C)c1nn(CC(=O)Nc2ccc3nncn3c2)c(=O)cc1N1CCC[C@H](C)C1 [Compound 55] | 0.51 | > 20
CC1CC(C)CN(c2cc(=O)n(CC(=O)Nc3ccc4nncn4c3)nc2C(C)C)C1 (stereo not shown) [Compound 56] | 0.64 | 16
CC(C)c1nn(CC(=O)Nc2ccc3nncn3c2)c(=O)cc1N1CCC(Cc2ccncc2)C1 (stereo not shown) [Compound 57] | > 20 | > 20
CC(C)c1nn(CC(=O)Nc2ccc3nncn3c2)c(=O)cc1N1CCC2(C1)CC2(F)F (stereo not shown) [Compound 58] | 0.89 | > 20
CC(C)c1nn(CC(=O)Nc2ccc3nncn3c2)c(=O)cc1N1CCC(Oc2ccccn2)C1 (stereo not shown) [Compound 59] | 9.92 | 16.1
CC(C)c1nn(CC(=O)Nc2ccc3nncn3c2)c(=O)cc1N1CCCC(F)C1 (stereo not shown) [Compound 60] | 1.59 | 19.1
CC(C)c1nn(CC(=O)Nc2ccc3nncn3c2)c(=O)cc1N1CCC2(CC1)CC2(F)F [Compound 61] | 19.5 | > 20
CC(C)c1nn(CC(=O)Nc2ccc3nncn3c2)c(=O)cc1N1CCC[C@@H]1Cn1ccnc1 [Compound 62] | > 20 | > 20
CC(C)c1nn(CC(=O)Nc2ccc3nncn3c2)c(=O)cc1N1CCCC1Cc1ccccn1 (stereo not shown) [Compound 63] | 1.28 | > 20
CC(C)c1nn(CC(=O)Nc2ccc3nncn3c2)c(=O)cc1N1CCC(c2nccs2)C1 (stereo not shown) [Compound 64] | 15.1 | > 20
CC(C)c1nn(CC(=O)Nc2ccc3nncn3c2)c(=O)cc1N1CCC(c2ccncc2)C1 (stereo not shown) [Compound 65] | > 20 | > 20
CC(C)c1nn(CC(=O)Nc2ccc3nncn3c2)c(=O)cc1NC1CC1 [Compound 66] | > 20 | > 20
CC(C)c1nn(CC(=O)Nc2ccc3nncn3c2)c(=O)cc1N(C)C1CC1 [Compound 67] | 10.2 | > 20

Source: US20240174670A1, “4-AMINO-6-OXO-PYRIDAZINE DERIVATIVES MODULATING NLRP3” (JANSSEN PHARMACEUTICA NV, priority 2021, published 2024)
